Some test systems named below: OVCAR-8; CAKI-1; RXF 393; UACC-62; HL-60; OVCAR-4; OVCAR-5; SN12C; ACHN; SW-620; HCC 2998; A498; K562; DMS-114; HT-29; SNB-75; NCI-H23; SR; UACC-257; MDA-N.
Assay in all cases: NCI anticancer screen, dose series, 48 h

SMILES strings stand for the structures.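 Step 1: Grow cells in 96-well plates. Step 2: Expose to compound for 48 hours at 5 concentrations. Step 3: Interpolate endpoints linearly; if unreached, use highest concentration. GI50 is the concentration that inhibits growth by half.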 Active and inactive are the calls of the source. Cut-off read from the data, not from the text of the source: active = GI50 up to about 1.1 µM and inactive = higher.

`C/C(=N\NS(=O)(=O)c1ccc([N+](=O)[O-])cc1)c1ccc[n+]([O-])n1`: the GI50 in the experiment on OVCAR-8 was 1.76 µM (inactive); in the experiment on CAKI-1, 2.32 µM (inactive); with RXF 393, 1.34 µM (inactive); with UACC-62 it was 1.21 µM (inactive); with HL-60, 1.81 µM (inactive); in the experiment on OVCAR-4, 1.35 µM (inactive). The GI50 was 2.63 µM (inactive) in the experiment with OVCAR-5; 2.97 µM (inactive) with SN12C; 2.44 µM (inactive) with ACHN; 2.29 µM (inactive) in the experiment with SW-620; 9.46 µM (inactive) with HCC 2998; 1.98 µM (inactive) in the experiment on A498. For the same compound, the GI50 is 3.33 µM (inactive) in the experiment with K562; 1.77 µM (inactive) in the experiment with DMS-114; 2.11 µM (inactive) in the experiment with HT-29; 1.95 µM (inactive) in the experiment on SNB-75; 1.7 µM (inactive) in the experiment with NCI-H23; 3.92 µM (inactive) in the experiment on SR. Besides, the GI50 with UACC-257 was 3.8 µM (inactive).

Regarding `COC1/C=C/O[C@@]2(C)Oc3c(C)c(O)c4c(O)c(cc(O)c4c3C2=O)NC(=O)/C(C)=C\C=C\[C@H](C)C(O)[C@@H](C)[C@@H](O)[C@@H](C)[C@H](OC(C)=O)[C@@H]1C` (stereo partly drawn), the GI50 with OVCAR-8 is 18.7 µM (inactive); in the experiment with CAKI-1 it was 37.9 µM (inactive); with RXF 393, 11.2 µM (inactive); in the experiment on UACC-62 it was 18.1 µM (inactive); with OVCAR-4 it was 13.1 µM (inactive); in the experiment on OVCAR-5, 38.5 µM (inactive). For the same compound, the GI50 was 14.1 µM (inactive) with SN12C; 19.4 µM (inactive) in the experiment on ACHN; 18.8 µM (inactive) in the experiment with HCC 2998; 38.2 µM (inactive) with A498; 9.89 µM (inactive) with K562; 7.91 µM (inactive) in the experiment on DMS-114. For the same compound, the GI50 in the experiment with HT-29 was 14.9 µM (inactive); with MDA-N it was 14.5 µM (inactive); with SNB-75, 36.8 µM (inactive); in the experiment with NCI-H23 it was 13.5 µM (inactive); in the experiment on SR, 6.15 µM (inactive); in the experiment on UACC-257, 13 µM (inactive).

As for `CCOC(=O)/N=C(\N)SCc1ccccc1`, the GI50 was > 100 µM (inactive) in the experiment with OVCAR-8; > 100 µM (inactive) in the experiment with CAKI-1; > 100 µM (inactive) in the experiment on RXF 393; > 100 µM (inactive) with UACC-62; 50.9 µM (inactive) in the experiment on HL-60; > 100 µM (inactive) in the experiment with OVCAR-4. Further, the GI50 in the experiment with OVCAR-5, in the experiment with SN12C, in the experiment with ACHN, in the experiment on SW-620, in the experiment with HCC 2998 and with A498 was > 100 µM (inactive) throughout. Also, the GI50 with K562 is > 100 µM (inactive); in the experiment with DMS-114, > 100 µM (inactive); with HT-29 it was > 100 µM (inactive); with SNB-75 it was > 100 µM (inactive); in the experiment with NCI-H23, > 100 µM (inactive); with SR it was 31.6 µM (inactive). The GI50 with UACC-257 is > 100 µM (inactive).

As to `O=C1C(Cl)C(c2ccc(O)cc2)N1n1cnc2ccccc2c1=O` (stereo not drawn), the GI50 with OVCAR-8 is 16.1 µM (inactive); in the experiment with CAKI-1, 31.5 µM (inactive); in the experiment on RXF 393, 19 µM (inactive); with UACC-62, 18.7 µM (inactive); in the experiment with HL-60, 24.5 µM (inactive); in the experiment with OVCAR-4, 25.5 µM (inactive). Moreover, the GI50 with OVCAR-5 is > 79.8 µM (inactive); with SN12C, 35.2 µM (inactive); in the experiment on ACHN, 16 µM (inactive); in the experiment with SW-620 it was 22.5 µM (inactive); in the experiment with HCC 2998, 61.8 µM (inactive); in the experiment with A498, > 100 µM (inactive). The GI50 in the experiment on K562 was 31.3 µM (inactive); in the experiment on DMS-114, 28.2 µM (inactive); in the experiment with HT-29, 29.4 µM (inactive); in the experiment with SNB-75, 49 µM (inactive); in the experiment on NCI-H23, 31 µM (inactive); in the experiment on SR, 18.8 µM (inactive). In the experiment with UACC-257, the GI50 was 43.6 µM (inactive).

For the compound `CN(C)CCCNc1c2ccccc2nc2cccc([N+](=O)[O-])c12`, the GI50 in the experiment on OVCAR-8 is 0.0195 µM (active); in the experiment with CAKI-1 it was 0.0196 µM (active); with RXF 393, 0.00118 µM (active); in the experiment with HL-60, 0.00362 µM (active); with OVCAR-4, < 0.001 µM (active); in the experiment with OVCAR-5 it was 0.00217 µM (active). Further, the GI50 in the experiment on SN12C was 0.00102 µM (active); in the experiment on ACHN, < 0.001 µM (active); in the experiment with SW-620, < 0.001 µM (active); with HCC 2998, < 0.001 µM (active); in the experiment on A498, < 0.001 µM (active); in the experiment with K562 it was < 0.001 µM (active). For the same compound, the GI50 in the experiment with DMS-114 was 0.0132 µM (active); with HT-29, < 0.001 µM (active); with MDA-N, 0.00102 µM (active); in the experiment with SNB-75, 0.00204 µM (active); with NCI-H23, < 0.001 µM (active); in the experiment with SR, < 0.001 µM (active). Also, in the experiment on UACC-257, the GI50 is 0.00275 µM (active).

In the case of `Cc1nn(-c2nc3ccccc3s2)c2c1C(=O)c1ccccc1-2`, the GI50 was 62.5 µM (inactive) in the experiment on RXF 393; > 100 µM (inactive) in the experiment with UACC-62; > 100 µM (inactive) in the experiment on HL-60; 26.9 µM (inactive) with OVCAR-4; > 100 µM (inactive) in the experiment on OVCAR-5; > 100 µM (inactive) with SN12C. Also, the GI50 in the experiment with ACHN, with SW-620, in the experiment with HCC 2998, in the experiment with A498, in the experiment with K562 and in the experiment on DMS-114 was > 100 µM (inactive) throughout. Moreover, the GI50 in the experiment on HT-29, with SNB-75, in the experiment on NCI-H23, in the experiment with SR and with UACC-257 was > 100 µM (inactive) throughout.

As to `CCCCCCCCCCCOC(=S)NC(C)C`, the GI50 was 16.6 µM (inactive) with OVCAR-8; 19 µM (inactive) in the experiment on CAKI-1; 19.8 µM (inactive) in the experiment on RXF 393; 15.5 µM (inactive) with UACC-62; 15.6 µM (inactive) in the experiment with HL-60; 24.8 µM (inactive) in the experiment on OVCAR-4. Further, the GI50 is 24.7 µM (inactive) in the experiment on OVCAR-5; 16.1 µM (inactive) in the experiment on SN12C; 19.3 µM (inactive) in the experiment on ACHN; 16.3 µM (inactive) in the experiment with SW-620; 17 µM (inactive) with HCC 2998; 19.6 µM (inactive) in the experiment on A498. The GI50 in the experiment on K562 is 21.2 µM (inactive); with DMS-114, 17.8 µM (inactive); in the experiment on HT-29, 17.1 µM (inactive); with SNB-75, 23.1 µM (inactive); with NCI-H23, 19.3 µM (inactive); with SR, 20.5 µM (inactive). Moreover, the GI50 in the experiment with UACC-257 was 19.1 µM (inactive).

On to `O=[N+]([O-])c1ccc(C2CC(c3ccc(NCc4nc5ccccc5[nH]4)cc3)=NO2)cc1` (stereo not drawn), for which the GI50 is 37.7 µM (inactive) in the experiment on OVCAR-8; > 100 µM (inactive) in the experiment with CAKI-1; > 100 µM (inactive) with RXF 393; 70.3 µM (inactive) in the experiment on UACC-62; 20.4 µM (inactive) in the experiment on HL-60; 14.3 µM (inactive) in the experiment with OVCAR-4. Moreover, the GI50 in the experiment with OVCAR-5 is > 100 µM (inactive); in the experiment on SN12C, 30.7 µM (inactive); with ACHN, 33.3 µM (inactive); with SW-620, 33.5 µM (inactive); in the experiment with HCC 2998, 85.5 µM (inactive); in the experiment with A498, 15.3 µM (inactive). Moreover, the GI50 was 21.1 µM (inactive) in the experiment on K562; 11.4 µM (inactive) in the experiment on DMS-114; 38.5 µM (inactive) with HT-29; > 100 µM (inactive) in the experiment with SNB-75; 34.6 µM (inactive) in the experiment on NCI-H23; 4.93 µM (inactive) with SR.

Source of the values: ChEMBL document CHEMBL1201862, “PubChem BioAssay data set” (2004).
